{
  "source": "patent US9993570B2",
  "about": "“Radiolabeled tracers for poly (ADP-ribose) polymerase-1 (PARP-1), methods and uses therefor” (Washington University, priority 2014, dated 2018)",
  "key": {"[1]": {"target": "PARP-1 (Homo sapiens, UniProt P09874)", "sequence (P09874 whole entry)": "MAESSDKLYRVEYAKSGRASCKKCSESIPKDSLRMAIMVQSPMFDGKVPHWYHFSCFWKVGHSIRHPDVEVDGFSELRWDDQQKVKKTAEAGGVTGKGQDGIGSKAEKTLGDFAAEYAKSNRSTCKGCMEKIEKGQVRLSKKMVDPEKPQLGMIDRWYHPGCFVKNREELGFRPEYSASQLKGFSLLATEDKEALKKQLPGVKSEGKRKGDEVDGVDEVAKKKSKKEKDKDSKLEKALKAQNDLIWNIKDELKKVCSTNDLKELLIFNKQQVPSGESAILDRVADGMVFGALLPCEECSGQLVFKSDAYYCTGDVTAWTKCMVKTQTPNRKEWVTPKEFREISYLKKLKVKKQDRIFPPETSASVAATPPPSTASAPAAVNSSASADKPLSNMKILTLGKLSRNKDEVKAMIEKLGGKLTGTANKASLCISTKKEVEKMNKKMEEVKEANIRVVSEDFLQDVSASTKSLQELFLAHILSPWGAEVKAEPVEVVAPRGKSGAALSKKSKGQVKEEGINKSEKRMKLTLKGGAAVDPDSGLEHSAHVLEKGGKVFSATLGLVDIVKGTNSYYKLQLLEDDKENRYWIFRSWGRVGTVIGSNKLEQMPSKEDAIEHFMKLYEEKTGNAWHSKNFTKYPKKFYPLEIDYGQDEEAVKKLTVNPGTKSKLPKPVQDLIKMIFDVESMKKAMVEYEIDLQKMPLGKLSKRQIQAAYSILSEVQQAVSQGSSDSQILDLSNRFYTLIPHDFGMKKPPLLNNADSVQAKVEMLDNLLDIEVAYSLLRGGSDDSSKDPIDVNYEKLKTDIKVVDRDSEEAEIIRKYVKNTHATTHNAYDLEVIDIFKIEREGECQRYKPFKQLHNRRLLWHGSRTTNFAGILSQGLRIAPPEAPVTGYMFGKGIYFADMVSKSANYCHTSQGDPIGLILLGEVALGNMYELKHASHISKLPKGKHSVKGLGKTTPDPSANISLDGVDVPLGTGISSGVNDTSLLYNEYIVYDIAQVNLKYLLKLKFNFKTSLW", "experiment": "PARP-1 enzymatic activity assay (chemical quantification of NAD+)", "quoted_text": "This assay is based on the chemical quantification of NAD^+, i.e. the amount of NAD^+ consumed when the active PARP-1 C-terminal catalytic domain sequentially transfers ADP-ribose subunits from nicotinamide adenine dinucleotide (NAD^+) to protein acceptors.^7\nHigh-specific-activity PARP-1 and activated DNA were purchased from Trevigen (Gaithersburg, Md.). All other reagents required for this assay including NAD^+ were purchased from Sigma-Aldrich (St. Louis, Mo.). Known PARP-1 inhibitor PJ-34, used as a control in these experiments, was synthesized in-house. […] A solution of 50 μg/mL of activated DNA was made in PARP assay buffer and 10 μL was added to each well. Stock solutions of test compounds were first prepared in DMSO, diluted to varying concentrations in PARP assay buffer, and 10 μL was added to each well. To initiate the reaction, 10 μL of 10 μg/mL PARP-1 enzyme in PARP assay buffer was added to each well. The total volume was 50 μL, bringing the final concentrations to 2 μg/mL PARP-1 enzyme, 10 μg mL activated DNA, and 100 nM NAD^+ per well. The plate was then incubated at room temperature for 20 min. The amount of NAD^+ present was then determined by first adding 20 μL 2 M KOH, followed by 20 μL of 20% acetophenone (in ethanol) to each well."}, "[2]": {"system": "SCC1 tumors", "experiment": "microPET imaging with [18F]WC-4-138, SCC1 tumors", "type": "in vivo, mice", "conditions": "30 minutes after IP injection, paired t test", "excerpt": "This example illustrates uptake of Compound 12 ([^18F]WC-4-138) in mice. Mature female athymic nude mice (Charles River Laboratories) were implanted with 10^6 SCC1 cells or 10^7 MDA-MB-231 cells into the mammary fat pads. Mice bearing SCC1 tumors were imaged at 5 weeks and mice bearing MDA-MB-231 cells were imaged at 2.5 weeks after implant. Mice were anesthetized with 2% isoflurane/oxygen and maintained at 1% isoflurane/oxygen via nose cone throughout the imaging procedure. Whole animal microCT images were acquired on an Inveon PET/CT scanner. The mice were injected via tail vein with 11.36±0.5 MBq (307±13 μCi) of [^18F]WC(4)-138 and underwent a 60 minute dynamic scan using Focus 220 or Inveon PET/CT scanners. The microPET and microCT images were coregistered using Integrated Research Workflow software (Siemens). Regions of interest were drawn over tumors to determine time activity curves. For drug treatment studies, animals reached intraperitoneal injections of 50 mg/kg olaparib or iniparib 30 minutes before imaging. […]\n(§1) In FIG. 8, mice were imaged at baseline, or 30 minutes after IP injection of olaparib or iniparib. (A) The percent of injected dose per ml was calculated for each MDA/MB-231 tumor at baseline or after drug treatment. […] Tracer uptake was unchanged in iniparib-treated mice (p=0.1098 as determined by a paired t test, n=6 tumors)."}, "[3]": {"system": "MDA-MB-231 tumors", "experiment": "microPET imaging with [18F]12, MDA-MB-231 tumors", "type": "in vivo, mice", "conditions": "for effect of drug treatment on tracer uptake outside the tumor (microPET images): MDA-MB-231 tumor-bearing mice; for effect of drug treatment on tracer uptake outside the tumor (microPET images) / effect of drug treatment on tumor uptake of tracer (microPET images): 50 mg/kg IP 30 minutes before imaging; for effect of drug treatment on tumor uptake of tracer (microPET images) / tracer uptake, percent of injected dose per ml, after drug treatment vs baseline: MDA-MB-231 tumors; for tracer uptake, percent of injected dose per ml, after drug treatment vs baseline: 30 minutes after IP injection, paired t test", "protocol": "(§2) This example illustrates the visualization of tumor tissue in microPET in mice. MDA-MB-436 human breast cancer xenograft tumors in immune-deficient mice were visualized by PET using [^18F]12.\n(§3) Tumor-bearing mice were placed in an induction chamber containing ˜2% isoflurane/oxygen and then secured to a custom double bed for placement of tail vein catheters; anesthesia was maintained via nose-cone at ˜1% isoflurane/oxygen for the dynamic imaging procedure. The mice were injected with 150-200 μCi of [^18F]12 and scanned for 0-60 min using Focus 220 and Inveon PET/CT scanners. The standard uptake values (SUVs) were generated from manually drawn regions of interests for tumors and surrounding ‘background’ tissue. Visualization of specific uptake was determined by comparison of baseline scans with images acquired by tracer injection 20 minutes after pre-treatment with the blocking agents olaparib (50 mg/kg, IP) or 12 (1 mg/kg, IP).\nThis example illustrates uptake of Compound 12 ([^18F]WC-4-138) in mice. Mature female athymic nude mice (Charles River Laboratories) were implanted with 10^6 SCC1 cells or 10^7 MDA-MB-231 cells into the mammary fat pads. Mice bearing SCC1 tumors were imaged at 5 weeks and mice bearing MDA-MB-231 cells were imaged at 2.5 weeks after implant. Mice were anesthetized with 2% isoflurane/oxygen and maintained at 1% isoflurane/oxygen via nose cone throughout the imaging procedure. Whole animal microCT images were acquired on an Inveon PET/CT scanner. The mice were injected via tail vein with 11.36±0.5 MBq (307±13 μCi) of [^18F]WC(4)-138 and underwent a 60 minute dynamic scan using Focus 220 or Inveon PET/CT scanners. The microPET and microCT images were coregistered using Integrated Research Workflow software (Siemens). Regions of interest were drawn over tumors to determine time activity curves. For drug treatment studies, animals reached intraperitoneal injections of 50 mg/kg olaparib or iniparib 30 minutes before imaging. Mice were imaged at baseline, or 30 minutes after IP injection of olaparib or iniparib. Arrows indicate location of tumors as identified on CT.\nas §1"}, "[4]": {"system": "head and neck cell lines SCC1 and SCC25", "experiment": "[18F]WC-4-138 uptake in cell culture, head and neck lines", "type": "cell-based", "conditions": "10 μM drug prior to incubation with tracer", "protocol": "In these experiments, the head and neck squamous cell carcinoma lines SCC1, SCC15, and SCC25 (ATCC) were propagated in Dulbecco's Modified Eagle's Medium (DMEM, Gibco) supplemented with 10% Fetal Bovine Serum (FBS, Gibco), Penicillin-Streptomycin (P/S, Gibco), and 100 ng/ml hydrocortisone (Sigma-Aldrich). The small cell lung cancer lines NCI-h69 and NCI-h82 (ATCC) were propagated m RPMI Medium (Gibco) supplemented with 10% FBS and 1% P/S. The human breast cancer cell line MDA-MB-231 (ATCC) was propagated in Eagle's Minimum Essential Medium (Gibco) supplemented with 5% FBS, 2% Vitamins for MEM (Gibco), 1% 200 mM L-glutamine (Gibco), 1% 10 mM Non-Essential Amino Acid (NEAA, Gibco).\nFor each experimental replicate, approximately 1 μCi of [^18F]WC-4-138 was diluted in 1 ml of cell culture medium and added to 10^6 cells. After 5, 30, or 60 minutes, the medium was collected and cells were washed twice in 0.7 ml Phosphate Buffered Saline (PBS, Gibco). Adherent cells were collected by scraping the cell culture dish and transferring to a microfuge tube. Radioactivity was measured in the collected medium, PBS, or cell pellets. Protein from the cell pellet was quantified using a […]. All data were decay-corrected and normalized to total protein quantity in the cell pellet. For drug treatment studies, cells were incubated with 10 μM Olaparib or Iniparib twenty-hours prior to incubation with [^18F]WC-4-138.\nThe head and neck cell lines SCC1 and SCC25 constitutively take up small amounts of tracer, registering as 0.001-0.002 μCi/μg in the cell pellet (FIG. 5A). […] Radioactivity was measured in head and neck squamous cell cancer (HNSCC) lines (SCC1 and SCC25) or small cell lung cancer (SCLC) lines (NCI-h69 and NCI-h82) after incubation with [^18F]WC-4-138 for 5, 30, or 60 minutes (n=3 at each time point). […] PARP activity was measured in HNSCC or lung SCLC cells. (FIG. 5C-D) [^18F]WC-4-138 uptake was measured in HNSCC cell lines treated with olaparib or iniparib. […]"}, "[5]": {"system": "MDA-MB-436 tumors", "experiment": "microPET imaging with [18F]12, MDA-MB-436 xenograft tumors", "type": "in vivo, mice", "conditions": "olaparib 50 mg/kg i.p. or 12 1 mg/kg i.p., 20 min prior to tracer", "protocol": "as §2\nMDA-MB-436 and MDA-MB-231 human breast cancer cells were maintained in cell culture under standard conditions with 5% CO2 atmosphere using Eagle's minimum essential medium (with Earle's balanced salt solution and 2 mM L-glutamine) supplemented with 2 mM E-glutamine, 1 mM sodium pyruvate, 0.1 mM non-essential amino acids 2% vitamins for MEM, and 5% fetal bovine serum. Cells in exponential growth were trypsinized and harvested for tumor implantation. After counting, cells were re-suspended in ice-cold 1:1 Matrigel and PBS to give the desired concentration and held on ice.\nMature female athymic nu/nu mice from Charles River Laboratories are allowed to acclimate in an AALAC accredited housing facility for at least 1 week prior to tumor implantation for these serial imaging studies. Female nu/nu mice were implanted in the mammary fat pads (near the auxiliary lymph nodes) with ˜8×10^6 MDA-MB-436 breast cancer cells in ˜100 μL of 1:1 Matrigel:PBS. Imaging studies were conducted 2-3 weeks post implantation.\nas §3"}, "[6]": {"conditions": "read-out: IC50 (nM), inhibition of PARP-1, mean ± SD, at least three independent experiments"}},
  "note": "“Also recorded” adds a separate entry of the source. Like-named read-outs stand apart in the source and are kept apart here.",
  "data": [
    {"smiles": "NC(=O)c1cccc2[nH]c(-c3ccc(OCCF)cc3)nc12", "note": "[Compound 8, 2-(4-(2-Fluoroethoxy)phenyl)-1H-benzo[d]imidazole-4-carboxamide]", "values": [
      {"measurement": "IC50", "setting": "[1]; read-out: IC50, inhibition of PARP-1, unit inferred", "value": 10.8, "unit": "nM"}
    ]},
    {"smiles": "C#CCOc1ccc(-c2nc3c(C(N)=O)cccc3[nH]2)cc1", "note": "[Compound 9, 2-(4-(Prop-2-ynloxy)phenyl)-1H-benzo[d]imidazole-4-carboxamide]", "values": [
      {"measurement": "IC50", "setting": "[1]; [6]", "value": "25.8 ± 3.3", "unit": "nM"}
    ]},
    {"smiles": "O=C1NCCn2c(-c3ccc(OCCF)cc3)nc3cccc1c32", "note": "[Compound 12, 5,6-Dihydro-2-(4-(2-fluoroethoxy)phenyl)-imidazo [4,5,1-jk][1,4]benezodiazepin-7(4H)-one]", "values": [
      {"measurement": "IC50", "setting": "[1]", "value": 63, "unit": "nM"}
    ]},
    {"smiles": "C#CCOc1ccc(-c2nc3cccc4c3n2CCNC4=O)cc1", "note": "[Compound 13, 5,6-Dihydro-2-(4-(prop-2-ynyloxy)phenyl)-imidazo[4,5,1-jk][1,4]benzodiazepine-7(4H)-one]", "values": [
      {"measurement": "IC50", "setting": "[1]; [6]", "value": "18.7 ± 2.7", "unit": "nM"}
    ]},
    {"smiles": "O=C1NCCn2c(-c3ccc(OCc4cn(CCF)nn4)cc3)nc3cccc1c32", "note": "[Compound 15, 5,6-Dihydro-2-(4-((1-(2-fluoroethyl)-1H-1,2,3-triazol-4-yl)methoxy)phenyl)-imidazo[4,5,1-jk][1,4]benzodiazepin-7(4H)-one]", "values": [
      {"measurement": "IC50", "setting": "[1]; [6]", "value": "22.1 ± 6.3", "unit": "nM"}
    ]},
    {"smiles": "NC(=O)c1ccc(I)c([N+](=O)[O-])c1", "note": "[iniparib]", "values": [
      {"measurement": "tracer uptake, percent of injected dose per ml, after drug treatment vs baseline", "setting": "[2]", "value": "unchanged"},
      {"measurement": "effect of drug treatment on tracer uptake outside the tumor (microPET images)", "setting": "[3]", "value": "abolishes said uptake in other types of cells"},
      {"measurement": "effect of drug treatment on tumor uptake of tracer (microPET images)", "setting": "[3]", "value": "does not effect the uptake"},
      {"measurement": "tracer uptake, percent of injected dose per ml, after drug treatment vs baseline", "setting": "[3]", "value": "unchanged"},
      {"measurement": "effect of drug on [18F]WC-4-138 uptake in HNSCC cell lines", "setting": "[4]", "value": "not"}
    ]},
    {"smiles": "O=C(c1cc(Cc2n[nH]c(=O)c3ccccc23)ccc1F)N1CCN(C(=O)C2CC2)CC1", "note": "[olaparib]", "values": [
      {"measurement": "tracer uptake, percent of injected dose per ml, after drug treatment vs baseline", "setting": "[2]", "value": "significantly reduced"},
      {"measurement": "effect of pretreatment on [18F]12 uptake in MDA-MB-436 tumors", "setting": "[5]", "value": "decreased [^18F]12 uptake in the tumors to the background tissue activity levels; also recorded: significantly decreased [^18F]12 uptake; also recorded: blocked"},
      {"measurement": "effect of pretreatment on [18F]12 uptake in MDA-MB-436 tumors", "setting": "[5]; listed as olaparib/AZD2281", "value": "blocked"},
      {"measurement": "effect of drug treatment on tracer uptake outside the tumor (microPET images)", "setting": "[3]", "value": "tracer is still present in other areas of the section"},
      {"measurement": "effect of drug treatment on tumor uptake of tracer (microPET images)", "setting": "[3]", "value": "abolished"},
      {"measurement": "tracer uptake, percent of injected dose per ml, after drug treatment vs baseline", "setting": "[3]", "value": "significantly reduced"},
      {"measurement": "effect of pretreatment on [18F]12 uptake in MDA-MB-231 tumor", "setting": "[3]; i.p. 50 mg/kg, 20 min pretreatment", "value": "decreased [^18F]12 uptake"},
      {"measurement": "effect of drug on [18F]WC-4-138 uptake in HNSCC cell lines", "setting": "[4]", "value": "abolished"}
    ]}
  ]
}
